Data reported in PMC11719606, “Exploring the Inhibition of Toxoplasma gondii α-Carbonic Anhydrase by Sulfonamides: Insights into Potential Drug Targeting” (International Journal of Molecular Sciences, 2024).

biological target: T1, Tg_CA (Toxoplasma gondii, UniProt S8F479); test: stopped-flow CO2 hydration, phenol red, Cheng-Prusoff; assay type: biochemical
T1 construct: gene TGME49_259950; alpha-CA domain, residues 487-830 of an 861-residue protein; E. coli BL21(DE3) codon-plus; about 47 kDa
T1 sequence (S8F479 487-830): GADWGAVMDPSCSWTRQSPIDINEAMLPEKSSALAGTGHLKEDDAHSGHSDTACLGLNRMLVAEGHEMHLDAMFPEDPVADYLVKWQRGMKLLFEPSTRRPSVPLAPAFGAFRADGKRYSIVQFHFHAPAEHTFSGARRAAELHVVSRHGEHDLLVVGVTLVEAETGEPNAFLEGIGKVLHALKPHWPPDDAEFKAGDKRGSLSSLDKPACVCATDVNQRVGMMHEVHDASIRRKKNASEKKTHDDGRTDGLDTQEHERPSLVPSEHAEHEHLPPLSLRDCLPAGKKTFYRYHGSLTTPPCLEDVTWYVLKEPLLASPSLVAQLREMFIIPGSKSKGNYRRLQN

In order of falling Ki:
1. O=C1NS(=O)(=O)c2ccccc21 [SAC, Saccharin]  8450 nM
2. NS(=O)(=O)Cc1noc2ccccc12 [ZNS, Zonisamide]  912 nM
3. NS(=O)(=O)c1cc2c(cc1Cl)NCNS2(=O)=O [HCT, Hydrochlorothiazide]  839 nM
4. NCc1ccc(S(N)(=O)=O)cc1 [compound 5]  739 nM
5. CC1(C)O[C@@H]2[C@@H](CO[C@@]3(COS(N)(=O)=O)OC(C)(C)O[C@@H]23)O1 [TPM, Topiramate]  720 nM
6. Cc1ccc(S(N)(=O)=O)cc1 [compound 4]  586 nM
7. NS(=O)(=O)c1cc(Cl)cc(Cl)c1O [compound 10]  578 nM
8. Cc1ccc(-c2cc(C(F)(F)F)nn2-c2ccc(S(N)(=O)=O)cc2)cc1 [CLX, Celecoxib]  508 nM
9. Cc1onc(-c2ccccc2)c1-c1ccc(S(N)(=O)=O)cc1 [VLX, Valdecoxib]  426 nM
10. NS(=O)(=O)c1ccc(CCO)cc1 [compound 17]  263 nM
11. Nc1ccc(S(=O)(=O)NCCc2ccc(S(N)(=O)=O)cc2)cc1 [compound 24]  204 nM
12. NS(=O)(=O)c1ccc(CCNS(=O)(=O)c2ccc([N+](=O)[O-])cc2CO)cc1 [compound 21]  94.7 nM
13. Nc1ccc(S(=O)(=O)NCc2ccc(S(N)(=O)=O)cc2)cc1 [compound 23]  93.4 nM
14. NS(=O)(=O)c1ccc(CO)cc1 [compound 16]  91.6 nM
15. Nc1ccc(S(=O)(=O)Nc2ccc(S(N)(=O)=O)cc2)cc1 [compound 22]  91.2 nM
16. NS(=O)(=O)c1ccc(C(=O)O)cc1 [compound 18]  85.3 nM
17. NS(=O)(=O)c1ccc(S(=O)(=O)Nc2cccc3c(Cl)c[nH]c23)cc1 [IND, Indisulam]  84 nM
18. CCN[C@H]1CN(CCCOC)S(=O)(=O)c2sc(S(N)(=O)=O)cc21 [BRZ, Brinzolamide]  77.8 nM
19. NS(=O)(=O)c1cc(Cl)c(Cl)c(S(N)(=O)=O)c1 [DCP, Dichlorphenamide]  77.5 nM
20. NS(=O)(=O)c1ccc(O)cc1 [compound 15]  76.4 nM
21. Nc1cc(Cl)c(S(N)(=O)=O)cc1S(N)(=O)=O [compound 12]  73.8 nM
22. Nc1nccc(Nc2ccc(S(N)(=O)=O)cc2)n1 [compound 19]  72.5 nM
23. Nc1cc(C(F)(F)F)c(S(N)(=O)=O)cc1S(N)(=O)=O [compound 11]  65.1 nM
24. NS(=O)(=O)c1nnc(NS(=O)(=O)c2ccccc2)s1 [BZA, Benzolamide]  62.1 nM
25. Cn1nc(S(N)(=O)=O)sc1=N [compound 14]  61 nM
26. Nc1nnc(S(N)(=O)=O)s1 [compound 13]  57.5 nM
27. CC(=O)N=c1sc(S(N)(=O)=O)nn1C [MZA, Methazolamide]  24.7 nM
28. Nc1ccc(S(=O)(=O)Nc2nnc(S(N)(=O)=O)s2)cc1 [compound 20]  17.8 nM
